Assay results reported in ChEMBL document CHEMBL4811259, “Novel 1-(prop-2-yn-1-ylamino)-2,3-dihydro-1H-indene-4-thiol derivatives as potent selective human monoamine oxidase B inhibitors: Design, SAR development, and biological evaluation” (Bioorg Med Chem Lett, 2021).
Active and inactive are the calls of the source. No cut-off for these calls is given here.

What was measured:
[1] = biological target: T1, Amine oxidase [flavin-containing] B (Homo sapiens, UniProt P27338); experiment: Inhibition of human MAO-B
T1 sequence (P27338 whole entry): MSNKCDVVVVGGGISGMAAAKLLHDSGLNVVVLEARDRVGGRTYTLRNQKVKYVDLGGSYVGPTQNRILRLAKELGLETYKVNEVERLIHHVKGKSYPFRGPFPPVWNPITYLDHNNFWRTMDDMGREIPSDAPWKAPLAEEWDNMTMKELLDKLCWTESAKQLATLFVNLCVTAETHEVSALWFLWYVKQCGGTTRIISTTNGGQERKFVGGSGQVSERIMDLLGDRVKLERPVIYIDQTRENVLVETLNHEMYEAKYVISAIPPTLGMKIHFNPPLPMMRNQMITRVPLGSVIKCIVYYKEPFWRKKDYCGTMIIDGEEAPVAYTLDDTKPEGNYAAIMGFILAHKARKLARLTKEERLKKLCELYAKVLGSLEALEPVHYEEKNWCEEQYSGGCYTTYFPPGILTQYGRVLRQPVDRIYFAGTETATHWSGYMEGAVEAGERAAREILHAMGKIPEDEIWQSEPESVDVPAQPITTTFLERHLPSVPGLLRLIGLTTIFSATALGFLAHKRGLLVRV

[2] = Selectivity index, ratio of IC50 for human MAO-A to IC50 for human MAO-B
SH-SY5Y [3] = experiment: Cytotoxicity against human SH-SY5Y cells at 5 to 50 uM after 24 hrs by MTT assay; assay type: cell-based; details: dose 5-50 µM
BV-2 [4] = experiment: Cytotoxicity against C57/BL6 mouse BV-2 cells at 5 to 50 uM after 24 hrs by MTT assay; assay type: cell-based; details: bv-2, 24 h, dose 5-50 µM
BV-2 [5] = experiment: Cytotoxicity against C57/BL6 mouse BV-2 cells assessed as induction of cell death at 50 uM after 24 hrs by MTT assay relative to control; assay type: cell-based; details: bv-2, 24 h
SH-SY5Y [6] = experiment: Cytotoxicity against human SH-SY5Y cells assessed as induction of cell death at 50 uM after 24 hrs by MTT assay relative to control; assay type: cell-based
BV-2 [7] = experiment: Neuroprotective activity against LPS-induced oxidative stress in C57/BL6 mouse BV-2 cells assessed as decrease in ROS level at < 20 uM after 24 hrs by DCFH-DA dye based fluorescence assay; assay type: functional, cell-based; details: dose microM <20, time 24.0 hrs
SH-SY5Y [8] = experiment: Neuroprotective activity against LPS-induced oxidative stress in human SH-SY5Y cells assessed as decrease in ROS level at < 20 uM after 24 hrs by DCFH-DA dye based fluorescence assay; assay type: functional, cell-based; details: dose microM <20, time 24.0 hrs
Mus musculus [9] = experiment: Neuroprotective activity against MPTP-induced C57BL/6J mouse model of Parkinson's disease assessed as increase in average speed at 0.2 mg/kg, ip pretreated for 7 consecutive days followed by MPTP challenge and further treated with compound until day 14 by open field test; assay type: functional, organism-based; details: time 14.0 day
Mus musculus [10] = experiment: Neuroprotective activity against MPTP-induced C57BL/6J mouse model of Parkinson's disease assessed as increase in total distance at 0.2 mg/kg, ip pretreated for 7 consecutive days followed by MPTP challenge and further treated with compound until day 14 by open field test; assay type: functional, organism-based; details: time 14.0 day
Mus musculus [11] = experiment: Neuroprotective activity against MPTP-induced C57BL/6J mouse model of Parkinson's disease assessed as decrease in immobility time at 0.2 mg/kg, ip pretreated for 7 consecutive days followed by MPTP challenge and further treated with compound until day 14 by open field test; assay type: functional, organism-based; details: time 14.0 day
[12] = biological target: T1, Amine oxidase [flavin-containing] B; experiment: Inhibition of human MAO-A; assay type: ADME

Row | Structure (SMILES) | IC50 [1] [µM] | Ratio IC50 [2] | other results
1 | C#CCNC1CCc2c(SCc3ccc(C(F)(F)F)cc3)cccc21 (stereo unspecified) | 9.68 | 0.096 | –
2 | C#CCNC1CCc2c(SCc3ccc(Cl)c(Cl)c3)cccc21 (stereo unspecified) | 2.84 | 0.026 | –
3 | C#CCNC1CCc2c(SCc3ccc4ccccc4c3)cccc21 (stereo unspecified) | 4.95 | 14 | –
4 | C#CCNC1CCc2c(SCCc3ccc(C(F)(F)F)cc3)cccc21 (stereo unspecified) | 16.1 | 0.54 | –
5 | C#CCNC1CCc2c(SCCc3cccc(C)c3)cccc21 (stereo unspecified) | 0.00035 | 14200 | Activity (SH-SY5Y [3]): Non-Toxic; Activity (BV-2 [4]): Non-Toxic; Activity (BV-2 [5]): 30%; Activity (SH-SY5Y [6]): 30%; Activity (BV-2 [7]): Active; Activity (SH-SY5Y [8]): Active; Activity (Mus musculus [9]): Active; Activity (Mus musculus [10]): Active; Activity (Mus musculus [11]): Active
6 | C#CCNC1CCc2c(SCCc3cccc(OC)c3)cccc21 (stereo unspecified) | 28.7 | 0.13 | –
7 | C#CCNC1CCc2c(SCc3ccc(Br)cc3)cccc21 (stereo unspecified) | 1.31 | 0.37 | –
8 | C#CCNC1CCc2c(OCc3cccc(C(F)(F)F)c3)cccc21 (stereo unspecified) | 6.41 | 0.84 | –
9 | C#CCNC1CCc2c(SCCc3cccc(Br)c3)cccc21 (stereo unspecified) | 30.5 | 0.02 | –
10 | C#CCNC1CCc2c(SCc3cccc(Br)c3)cccc21 (stereo unspecified) | > 100 | – | –
11 | C#CCNC1CCc2c(SCc3ccc(F)c(F)c3)cccc21 (stereo unspecified) | 2.65 | 0.99 | –
12 | C#CCNC1CCc2c(SCCc3ccc(Cl)cc3)cccc21 (stereo unspecified) | 10.8 | 0.085 | –
13 | C#CCNC1CCc2c(SCCc3ccc(Cl)c(Cl)c3)cccc21 (stereo unspecified) | 3.85 | 0.73 | –
14 | C#CCNC1CCc2c(SCc3cccc(C(F)(F)F)c3)cccc21 (stereo unspecified) | 0.0047 | 1640 | Activity (SH-SY5Y [3]): Non-Toxic; Activity (BV-2 [4]): Non-Toxic; Activity (BV-2 [5]): 30%; Activity (SH-SY5Y [6]): 30%; Activity (BV-2 [7]): Active; Activity (SH-SY5Y [8]): Active; Activity (Mus musculus [9]): Active; Activity (Mus musculus [10]): Active; Activity (Mus musculus [11]): Active
15 | C#CCNC1CCc2c(SCc3ccccc3)cccc21 (stereo unspecified) | 6.4 | > 15.6 | IC50 [12]: Not Active
16 | C#CCNC1CCc2c(SCCc3cccc(Cl)c3)cccc21 (stereo unspecified) | 82.4 | – | –

Row | Structure (SMILES) | IC50 [1] [µM] | Ratio IC50 [2] | other results
17 | C#CCNC1CCc2c(SCc3cccc(F)c3)cccc21 (stereo unspecified) | 1.48 | 7.79 | –
18 | C#CCNC1CCc2c(SCCc3ccc(F)c(F)c3)cccc21 (stereo unspecified) | 3.24 | – | –
19 | C#CCNC1CCc2c(SCCc3ccc(C)cc3)cccc21 (stereo unspecified) | 25.8 | 0.18 | –
20 | C#CCNC1CCc2c(SCCc3ccc(Br)cc3)cccc21 (stereo unspecified) | 85.3 | 0.015 | –
21 | C#CCNC1CCc2c(SCCc3cccc(F)c3)cccc21 (stereo unspecified) | 4.3 | 1.82 | –
22 | C#CCNC1CCc2c(SCc3cccc(OC)c3)cccc21 (stereo unspecified) | 3.19 | 0.48 | –
23 | C#CCNC1CCc2c(SCc3cccc(Cl)c3)cccc21 (stereo unspecified) | 23.3 | 0.047 | –
24 | C#CCNC1CCc2c(SCc3ccc(Cl)cc3Cl)cccc21 (stereo unspecified) | 3.76 | 5.93 | –
25 | C#CCNC1CCc2c(SCc3ccc(F)cc3F)cccc21 (stereo unspecified) | 2.43 | 0.61 | –
26 | C#CCNC1CCc2c(NCc3cccc(C(F)(F)F)c3)cccc21 (stereo unspecified) | 5.11 | 2.21 | –
27 | C#CCNC1CCc2c(SCc3ccc(C)cc3)cccc21 (stereo unspecified) | 1.56 | 0.2 | –
28 | C#CCN[C@@H]1CCc2ccccc21 [RASAGILINE] | – | – | Activity (SH-SY5Y [3]): Non-Toxic; Activity (BV-2 [4]): Non-Toxic; Activity (BV-2 [5]): 30%; Activity (SH-SY5Y [6]): 30%; Activity (BV-2 [7]): Active; Activity (SH-SY5Y [8]): Active; Activity (Mus musculus [9]): Active; Activity (Mus musculus [10]): Active; Activity (Mus musculus [11]): Active
29 | C#CCNC1CCc2c(SCCc3cccc(C(F)(F)F)c3)cccc21 (stereo unspecified) | 3.72 | 0.076 | –
30 | C#CCNC1CCc2c(SCc3cccc(C)c3)cccc21 (stereo unspecified) | > 100 | – | –
31 | C#CCNC1CCc2c(SCCc3ccc(OC)cc3)cccc21 (stereo unspecified) | 62 | 13.5 | –
32 | C#CCNC1CCc2c(SCc3ccc(OC)cc3)cccc21 (stereo unspecified) | 1.9 | 2.09 | –
